{"source": "PubChem BioAssay (NCI)", "assay_in_all_cases": "inhibition of tumour cell growth, NCI panel, 48 h", "key": {"SF-539 CNS": {"system": "SF-539 CNS"}, "HS 578T breast": {"system": "HS 578T breast"}, "UACC-257 melanoma": {"system": "UACC-257 melanoma"}, "HOP-62 NSCLC": {"system": "HOP-62 NSCLC"}, "RPMI-8226 leukemia": {"system": "RPMI-8226 leukemia"}, "SK-MEL-28 melanoma": {"system": "SK-MEL-28 melanoma"}, "MDA-MB-231 breast": {"system": "MDA-MB-231 breast"}, "OVCAR-3 ovarian": {"system": "OVCAR-3 ovarian"}, "SR leukemia": {"system": "SR leukemia"}, "NCI-H522 lung": {"system": "NCI-H522 lung"}, "MCF7 breast": {"system": "MCF7 breast"}, "U251 CNS": {"system": "U251 CNS"}, "A549 NSCLC": {"system": "A549 NSCLC"}, "SNB-75 CNS": {"system": "SNB-75 CNS"}, "EKVX NSCLC": {"system": "EKVX NSCLC"}, "K-562 leukemia": {"system": "K-562 leukemia"}, "NCI-H460 lung": {"system": "NCI-H460 lung"}, "HCC-2998 colon": {"system": "HCC-2998 colon"}, "SF-295 CNS": {"system": "SF-295 CNS"}, "IGROV1 ovarian": {"system": "IGROV1 ovarian"}, "ACHN renal": {"system": "ACHN renal"}, "TK-10 renal": {"system": "TK-10 renal"}, "SNB-19 CNS": {"system": "SNB-19 CNS"}, "MDA-N": {"system": "MDA-N"}, "UO-31 renal": {"system": "UO-31 renal"}, "CAKI-1 renal": {"system": "CAKI-1 renal"}, "HCT-116 colon": {"system": "HCT-116 colon"}, "SF-268 CNS": {"system": "SF-268 CNS"}, "OVCAR-5 ovarian": {"system": "OVCAR-5 ovarian"}, "NCI/ADR-RES ovarian": {"system": "NCI/ADR-RES ovarian"}, "MDA-MB-435": {"system": "MDA-MB-435"}, "T-47D breast": {"system": "T-47D breast"}, "CCRF-CEM leukemia": {"system": "CCRF-CEM leukemia"}, "HT29 colon": {"system": "HT29 colon"}, "DU-145 prostate": {"system": "DU-145 prostate"}, "MALME-3M melanoma": {"system": "MALME-3M melanoma"}, "LOX IMVI melanoma": {"system": "LOX IMVI melanoma"}, "SW-620 colon": {"system": "SW-620 colon"}, "786-0 renal": {"system": "786-0 renal"}, "OVCAR-8 ovarian": {"system": "OVCAR-8 ovarian"}, "COLO 205 colon": {"system": "COLO 205 colon"}, "RXF 393 renal": {"system": "RXF 393 renal"}, "OVCAR-4 ovarian": {"system": "OVCAR-4 ovarian"}, "SK-MEL-5 melanoma": {"system": "SK-MEL-5 melanoma"}, "A498 renal": {"system": "A498 renal"}, "KM12 colon": {"system": "KM12 colon"}, "HCT-15 colon": {"system": "HCT-15 colon"}, "PC-3 prostate": {"system": "PC-3 prostate"}, "MOLT-4 leukemia": {"system": "MOLT-4 leukemia"}, "NCI-H226 lung": {"system": "NCI-H226 lung"}, "SN12C renal": {"system": "SN12C renal"}, "NCI-H23 lung": {"system": "NCI-H23 lung"}, "HOP-92 NSCLC": {"system": "HOP-92 NSCLC"}, "HL-60(TB) leukemia": {"system": "HL-60(TB) leukemia"}, "M14 melanoma": {"system": "M14 melanoma"}}, "note": "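Method: 48-hour compound exposure of cells in 96-well plates, five concentrations, linear interpolation of endpoints. TGI denotes the concentration required for complete inhibition of growth.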", "data": [{"smiles": "CO[C@@H]1C[C@H]2[C@@H]3CC[C@H]([C@@H](C)CO)[C@@]3(C)CC[C@@H]2[C@@]2(C)CC[C@H]3C[C@]312", "values": [{"measurement": "TGI", "setting": "SF-539 CNS", "result": "> 100", "unit": "µM"}, {"measurement": "TGI", "setting": "HS 578T breast", "result": 82.3, "unit": "µM"}, {"measurement": "TGI", "setting": "UACC-257 melanoma", "result": 71.9, "unit": "µM"}, {"measurement": "TGI", "setting": "HOP-62 NSCLC", "result": "> 100", "unit": "µM"}, {"measurement": "TGI", "setting": "RPMI-8226 leukemia", "result": 89.6, "unit": "µM"}, {"measurement": "TGI", "setting": "SK-MEL-28 melanoma", "result": 83.5, "unit": "µM"}, {"measurement": "TGI", "setting": "MDA-MB-231 breast", "result": 80.7, "unit": "µM"}, {"measurement": "TGI", "setting": "OVCAR-3 ovarian", "result": "> 100", "unit": "µM"}, {"measurement": "TGI", "setting": "SR leukemia", "result": "> 100", "unit": "µM"}, {"measurement": "TGI", "setting": "NCI-H522 lung", "result": 71.8, "unit": "µM"}, {"measurement": "TGI", "setting": "MCF7 breast", "result": 31.8, "unit": "µM"}, {"measurement": "TGI", "setting": "U251 CNS", "result": 27.7, "unit": "µM"}, {"measurement": "TGI", "setting": "A549 NSCLC", "result": "> 100", "unit": "µM"}, {"measurement": "TGI", "setting": "SNB-75 CNS", "result": "> 100", "unit": "µM"}, {"measurement": "TGI", "setting": "EKVX NSCLC", "result": "> 100", "unit": "µM"}, {"measurement": "TGI", "setting": "K-562 leukemia", "result": 60.5, "unit": "µM"}, {"measurement": "TGI", "setting": "NCI-H460 lung", "result": 43.1, "unit": "µM"}, {"measurement": "TGI", "setting": "HCC-2998 colon", "result": "> 100", "unit": "µM"}, {"measurement": "TGI", "setting": "SF-295 CNS", "result": 89.2, "unit": "µM"}, {"measurement": "TGI", "setting": "IGROV1 ovarian", "result": "> 100", "unit": "µM"}, {"measurement": "TGI", "setting": "ACHN renal", "result": 66.4, "unit": "µM"}, {"measurement": "TGI", "setting": "TK-10 renal", "result": "> 100", "unit": "µM"}, {"measurement": "TGI", "setting": "SNB-19 CNS", "result": "> 100", "unit": "µM"}, {"measurement": "TGI", "setting": "MDA-N", "result": "> 100", "unit": "µM"}, {"measurement": "TGI", "setting": "UO-31 renal", "result": 98.8, "unit": "µM"}, {"measurement": "TGI", "setting": "CAKI-1 renal", "result": "> 100", "unit": "µM"}, {"measurement": "TGI", "setting": "HCT-116 colon", "result": "> 100", "unit": "µM"}, {"measurement": "TGI", "setting": "SF-268 CNS", "result": "> 100", "unit": "µM"}, {"measurement": "TGI", "setting": "OVCAR-5 ovarian", "result": "> 100", "unit": "µM"}, {"measurement": "TGI", "setting": "NCI/ADR-RES ovarian", "result": 93, "unit": "µM"}, {"measurement": "TGI", "setting": "MDA-MB-435", "result": "> 100", "unit": "µM"}, {"measurement": "TGI", "setting": "T-47D breast", "result": "> 100", "unit": "µM"}, {"measurement": "TGI", "setting": "CCRF-CEM leukemia", "result": "> 100", "unit": "µM"}, {"measurement": "TGI", "setting": "HT29 colon", "result": 36.2, "unit": "µM"}, {"measurement": "TGI", "setting": "DU-145 prostate", "result": "> 100", "unit": "µM"}, {"measurement": "TGI", "setting": "MALME-3M melanoma", "result": 41.2, "unit": "µM"}, {"measurement": "TGI", "setting": "LOX IMVI melanoma", "result": 34.6, "unit": "µM"}, {"measurement": "TGI", "setting": "SW-620 colon", "result": "> 100", "unit": "µM"}, {"measurement": "TGI", "setting": "786-0 renal", "result": "> 100", "unit": "µM"}, {"measurement": "TGI", "setting": "OVCAR-8 ovarian", "result": "> 100", "unit": "µM"}, {"measurement": "TGI", "setting": "COLO 205 colon", "result": 31.4, "unit": "µM"}, {"measurement": "TGI", "setting": "RXF 393 renal", "result": 45.6, "unit": "µM"}, {"measurement": "TGI", "setting": "OVCAR-4 ovarian", "result": "> 100", "unit": "µM"}, {"measurement": "TGI", "setting": "SK-MEL-5 melanoma", "result": 31.1, "unit": "µM"}, {"measurement": "TGI", "setting": "A498 renal", "result": "> 100", "unit": "µM"}, {"measurement": "TGI", "setting": "KM12 colon", "result": 36.6, "unit": "µM"}, {"measurement": "TGI", "setting": "HCT-15 colon", "result": "> 100", "unit": "µM"}, {"measurement": "TGI", "setting": "PC-3 prostate", "result": 57.3, "unit": "µM"}, {"measurement": "TGI", "setting": "MOLT-4 leukemia", "result": "> 100", "unit": "µM"}, {"measurement": "TGI", "setting": "NCI-H226 lung", "result": 59.9, "unit": "µM"}, {"measurement": "TGI", "setting": "SN12C renal", "result": 77.1, "unit": "µM"}, {"measurement": "TGI", "setting": "NCI-H23 lung", "result": "> 100", "unit": "µM"}, {"measurement": "TGI", "setting": "HOP-92 NSCLC", "result": 58.5, "unit": "µM"}, {"measurement": "TGI", "setting": "HL-60(TB) leukemia", "result": 76.3, "unit": "µM"}, {"measurement": "TGI", "setting": "M14 melanoma", "result": 69.8, "unit": "µM"}]}]}
